# Reference: patent US20150031740A1, “COSMETIC COMPOSITION FOR STIMULATING THE CELLULAR ANTI-AGING FUNCTIONS OF THE SKIN” (SYNTIVIA, priority 2011, published 2015)
# What was measured:
# sirtuin-5 = assay: Expression of the gene coding for sirtuin-5, quantitative RT-PCR in NHDF; type: cell-based; conditions: normal human fibroblasts (NHDF), 10^−5 M in 0.1% DMSO, 24 hours, mRNA by quantitative RT-PCR
# Method: In these examples, the expression of messenger RNAs was measured via the technique of quantitative RT-PCR (reverse transcription followed by polymerase chain reaction), after in vitro incubation of the various cell types in the absence or presence of the test compounds. This study was performed on normal human dermal fibroblasts (NHDF) or on normal human epidermal keratinocytes (NHEK), depending on the genes tested. The molecules were tested at 10^−5 M in aqueous 0.1% dimethyl sulfoxide (DMSO) solution. The cells were cultured at a concentration of 10,000 cells per well of 96-well plates, in the presence of standard culture medium as a function of the cell type. The compounds were then added at the test concentration, for 24 hours. The supernatant was removed and the cells were taken up in a specific buffer for extraction of the messenger RNAs (mRNA). The mRNAs were purified and reverse-transcribed in the presence of a commercial reverse transcriptase. The complementary DNAs (cDNA) obtained were used in a real-time quantitative PCR experiment, by means of suitable primers. The degree of expression of the mRNAs was normalized with five reference genes. The cells used for this example are normal human fibroblasts (NHDF). The contact with the test compounds was carried out for 24 hours. The results obtained, in terms of expression of sirtuin-5 (coded for by the gene of Genbank accession number: NC—000006.11) relative to the basal level (absence of compound) taken to 100%, are shown in Table 5 below.
# [1] = test system: HAS3 (Hyaluronan synthase 3); assay: Expression of extracellular matrix gene Hyaluronan synthase 3, RT-PCR in NHDF; type: cell-based, human; conditions: 10^−5 M, 24 hours, quantitative RT-PCR
# Method: (§1) In these examples, the expression of messenger RNAs was measured via the technique of quantitative RT-PCR (reverse transcription followed by polymerase chain reaction), after in vitro incubation of the various cell types in the absence or presence of the test compounds.
# (§2) This study was performed on normal human dermal fibroblasts (NHDF) or on normal human epidermal keratinocytes (NHEK), depending on the genes tested. The molecules were tested at 10^−5 M in aqueous 0.1% dimethyl sulfoxide (DMSO) solution.
# (§3) The cells were cultured at a concentration of 10,000 cells per well of 96-well plates, in the presence of standard culture medium as a function of the cell type.
# (§4) The compounds were then added at the test concentration, for 24 hours.
# (§5) The supernatant was removed and the cells were taken up in a specific buffer for extraction of the messenger RNAs (mRNA). The mRNAs were purified and reverse-transcribed in the presence of a commercial reverse transcriptase.
# (§6) The complementary DNAs (cDNA) obtained were used in a real-time quantitative PCR experiment, by means of suitable primers. The degree of expression of the mRNAs was normalized with five reference genes.
# (§7) The cells used for this example are normal human fibroblasts (NHDF).
# (§8) The contact with the test compounds was carried out for 24 hours. […]
# [2] = test system: SPINK5 (Serine peptidase Kazal type 5); assay: Expression of cell differentiation and adhesion gene SPINK5, RT-PCR in NHEK; type: cell-based, human; conditions: 10^−5 M, 24 hours, quantitative RT-PCR
# Method: as §1, §2, §3, §4, §5, §6
# (§9) The cells used for this example are normal human keratinocytes (NHEK).
# as §8
# SPARC (Osteonectin) = assay: Expression of extracellular matrix gene SPARC, RT-PCR in NHDF; type: cell-based, human; conditions: 10^−5 M, 24 hours, quantitative RT-PCR
# Method: as §1, §2, §3, §4, §5, §6, §7, §8
# EVPL (Envoplakin) = assay: Expression of cell differentiation and adhesion gene EVPL, RT-PCR in NHEK; type: cell-based, human; conditions: 10^−5 M, 24 hours, quantitative RT-PCR
# Method: as §1, §2, §3, §4, §5, §6, §9, §8
# [3] = test system: TGM1 (Transglutaminase 1); assay: Expression of cell differentiation and adhesion gene TGM1, RT-PCR in NHEK; type: cell-based, human; conditions: 10^−5 M, 24 hours, quantitative RT-PCR
# Method: as §1, §2, §3, §4, §5, §6, §9, §8
# Collagen 1 = assay: Expression of Collagen 1 at the protein level by immunofluorescence in NHDF; type: cell-based, human; conditions: 10 ppm in 0.1% DMSO, 24 hours, FIG. 1
# Method: In this example, the expression of Collagen 1 was measured at the protein level via the immunofluorescence technique, after in vitro incubation of the cells in the absence or presence of the test compounds, at a concentration of 10 ppm in aqueous 0.1% DMSO solution.
# The compound in accordance with the invention of formula (IIa) and the comparative compounds Comp.1 and Comp.2, of respective formula (IV) and (V), were tested.
# TGFβ was used as positive control, at a concentration of 10 ng/ml in an aqueous solution. An untreated control was also realized.
# This study was performed on normal human dermal fibroblasts (NHDF).
# The cells were cultured at a concentration of 4000 cells per well in 96-well plates, in the presence of standard culture medium.
# The compounds were then added at the test concentration, identical for all, for 24 hours.
# The supernatant was removed and the cells were prepared for the fluorescent labeling. The cells were fixed in the presence of 3.7% formaldehyde, and then permeabilized in a buffer containing 1% Triton®, and finally the cells were rinsed and incubated in the presence of an anti-Collagen1 monoclonal antibody (Abcam) for one hour 30 minutes. After washing, the cells were incubated in the presence of the secondary antibody (Alexa GAM488, Invitrogen) for 1 hour. […]
# The fluorescence was then quantified using an automated microscope (ArrayScan®, Cellomics®). […]
# ELN (Elastin) = assay: Expression of extracellular matrix gene Elastin, RT-PCR in NHDF; type: cell-based, human; conditions: 10^−5 M, 24 hours, quantitative RT-PCR
# Method: as §1, §2, §3, §4, §5, §6, §7, §8
# LAMA5 (Laminin alpha 5) = assay: Expression of extracellular matrix gene Laminin alpha 5, RT-PCR in NHDF; type: cell-based, human; conditions: 10^−5 M, 24 hours, quantitative RT-PCR
# Method: as §1, §2, §3, §4, §5, §6, §7, §8
# CRNN (Cornulin) = assay: Expression of cell differentiation and adhesion gene CRNN, RT-PCR in NHEK; type: cell-based, human; conditions: 10^−5 M, 24 hours, quantitative RT-PCR
# Method: as §1, §2, §3, §4, §5, §6, §9, §8
# [4] = test system: MMP-9 (matrix metalloprotease type 9); assay: Gene expression of MMP-9, quantitative RT-PCR in NHEK; type: cell-based; conditions: normal human keratinocytes (NHEK), 10^−5 M in 0.1% DMSO, 24 hours, mRNA by quantitative RT-PCR
# Method: as §1, §2, §3, §4, §5, §6
# The cells used for this example were normal human keratinocytes (NHEK).
# The contact with the test compounds was carried out for 24 hours.
# COL1A11 (Collagen 1) = assay: Expression of extracellular matrix gene Collagen 1, RT-PCR in NHDF; type: cell-based, human; conditions: 10^−5 M, 24 hours, quantitative RT-PCR
# Method: as §1, §2, §3, §4, §5, §6, §7, §8
# COL3A1 (Collagen 3) = assay: Expression of extracellular matrix gene Collagen 3, RT-PCR in NHDF; type: cell-based, human; conditions: 10^−5 M, 24 hours, quantitative RT-PCR
# Method: as §1, §2, §3, §4, §5, §6, §7, §8
# COL5A1 (Collagen 5) = assay: Expression of extracellular matrix gene Collagen 5, RT-PCR in NHDF; type: cell-based, human; conditions: 10^−5 M, 24 hours, quantitative RT-PCR
# Method: as §1, §2, §3, §4, §5, §6, §7, §8
# EPPK1 (Epiplakin 1) = assay: Expression of cell differentiation and adhesion gene EPPK1, RT-PCR in NHEK; type: cell-based, human; conditions: 10^−5 M, 24 hours, quantitative RT-PCR
# Method: as §1, §2, §3, §4, §5, §6, §9, §8
# KRT1 (Keratin 1) = assay: Expression of cell differentiation and adhesion gene KRT1, RT-PCR in NHEK; type: cell-based, human; conditions: 10^−5 M, 24 hours, quantitative RT-PCR
# Method: as §1, §2, §3, §4, §5, §6, §9, §8
# AQP3 (Aquaporin 3) = assay: Expression of cell differentiation and adhesion gene AQP3, RT-PCR in NHEK; type: cell-based, human; conditions: 10^−5 M, 24 hours, quantitative RT-PCR
# Method: as §1, §2, §3, §4, §5, §6, §9, §8
# protein Klotho (KL) = assay: Expression of the gene coding for the protein Klotho (KL), quantitative RT-PCR in NHDF; type: cell-based; conditions: normal human fibroblasts (NHDF), 10^−5 M in 0.1% DMSO, 24 hours, mRNA by quantitative RT-PCR
# Method: as §1, §2, §3, §4, §5, §6, §7, §8
smiles,measurement,setting,value
"COc1ccc2[nH]cc(CCNC(=O)/C=C/c3ccc(O)c(O)c3)c2c1 [(IIa), (2E)-3-(3,4-Dihydroxyphenyl)-N-[2-(5-methoxy-1H-indol-3-yl)ethyl]-2-propenamide]",Expression of sirtuin-5 relative to the basal level taken to 100%,sirtuin-5,153%
same,Gene expression relative to the basal level taken to 100%: HAS3 (Hyaluronan synthase 3),[1],144%
same,Gene expression relative to the basal level taken to 100%: SPINK5 (Serine peptidase Kazal type 5),[2],173%
same,Gene expression relative to the basal level taken to 100%: SPARC (Osteonectin),SPARC (Osteonectin),118%
same,Gene expression relative to the basal level taken to 100%: EVPL (Envoplakin),EVPL (Envoplakin),166%
same,Gene expression relative to the basal level taken to 100%: TGM1 (Transglutaminase 1),[3],183%
same,Expression (production) of Collagen 1 relative to the basal level (control) taken to 100%,Collagen 1,"substantially stimulates the production of collagen 1 by the cells, as much as the positive control (TGFβ)"
same,Gene expression relative to the basal level taken to 100%: ELN (Elastin),ELN (Elastin),136%
same,Gene expression relative to the basal level taken to 100%: LAMA5 (Laminin alpha 5),LAMA5 (Laminin alpha 5),141%
same,Gene expression relative to the basal level taken to 100%: CRNN (Cornulin),CRNN (Cornulin),261%
same,Decrease of expression of MMP-9 relative to the basal level taken to 100%,[4],−67%
same,Gene expression relative to the basal level taken to 100%: COL1A11 (Collagen 1),COL1A11 (Collagen 1),133%
same,Gene expression relative to the basal level taken to 100%: COL3A1 (Collagen 3),COL3A1 (Collagen 3),125%
same,Gene expression relative to the basal level taken to 100%: COL5A1 (Collagen 5),COL5A1 (Collagen 5),144%
same,Gene expression relative to the basal level taken to 100%: EPPK1 (Epiplakin 1),EPPK1 (Epiplakin 1),177%
same,Gene expression relative to the basal level taken to 100%: KRT1 (Keratin 1),KRT1 (Keratin 1),142%
same,Gene expression relative to the basal level taken to 100%: AQP3 (Aquaporin 3),AQP3 (Aquaporin 3),228%
COc1ccc2[nH]cc(CCNC(=O)/C=C/c3ccc(O)cc3)c2c1 [(IIb)],Expression of sirtuin-5 relative to the basal level taken to 100%,sirtuin-5,125%
same,Expression of the protein Klotho relative to the basal level taken to 100%,protein Klotho (KL),+144%
"O=C(NCCc1c[nH]c2ccccc12)c1ccc(O)cc1 [Comp.2, 4-hydroxy-N-[2-(1H-indol-3-yl)ethyl]benzamide, reference compound]",Expression (production) of Collagen 1 relative to the basal level (control) taken to 100%,Collagen 1,"do not stimulate, or only very sparingly stimulate"
COc1cc(/C=C/C(=O)NCCc2c[nH]c3ccc(O)cc23)ccc1O [(IId)],Decrease of expression of MMP-9 relative to the basal level taken to 100%,[4],−47%
O=C(/C=C/c1ccc(O)c(O)c1)NCCc1c[nH]c2ccc(O)cc12 [(IIf)],Expression of sirtuin-5 relative to the basal level taken to 100%,sirtuin-5,140%
same,Decrease of expression of MMP-9 relative to the basal level taken to 100%,[4],−63%
COc1ccc2[nH]cc(CCNC(=O)c3ccc(O)cc3O)c2c1 [(IIc)],Decrease of expression of MMP-9 relative to the basal level taken to 100%,[4],−56%
O=C(NCCc1c[nH]c2ccc(O)cc12)c1ccc(O)c(O)c1 [(IIe)],Expression of sirtuin-5 relative to the basal level taken to 100%,sirtuin-5,146%
same,Decrease of expression of MMP-9 relative to the basal level taken to 100%,[4],−81%
